Measurements taken from patent US11667602B2, “Compounds and their use” (AstraZeneca AB, priority 2020, dated 2023).
In brackets after ≈: the same amount, converted by molar mass.

Legend:
[1] = Human Liver Microsomal Stability (Test C); format: in vitro ADME; conditions: human, liver microsomes
Outline: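 Human liver microsome incubation per the Wernevik et al. integrated DMPK panel protocol. Intrinsic clearance reported as CLint in μl/min/mg protein, averaged arithmetically over repeat runs.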

[2] = Human Plasma Protein Binding (Test B); format: in vitro ADME; conditions: fraction unbound (fu)
Outline: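 Human plasma protein binding run per the published Wernevik et al. (2020) integrated DMPK panel protocol. Values are fraction unbound (fu, % free); repeat runs averaged arithmetically.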

[3] = Rat Hepatocyte Stability (Test E); format: in vitro ADME; conditions: rat, hepatocytes, geometric mean if run multiple times
Outline: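 Run per the published AstraZeneca-type rat hepatocyte stability protocol (Wernevik et al. panel). Values are mean intrinsic clearance, Clint in μl/min/10^6 cells; geometric mean used for repeated runs.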

Solubility (Test F) = format: physicochemical; conditions: arithmetic mean if run multiple times
Method: The assay was conducted according to the Solubility Assay described in pages 164-167 of Wernevik, J. et al., “A Fully Integrated Assay Panel for Early Drug Metabolism and Pharmacokinetics Profiling”, Assay and Drug Development Technologies, 2020, 18(4), 157-179. Data are reported in Table 36 as solubility ([…]. Where the assay was run multiple times for the same compound, the arithmetic mean is reported.

[4] = Human Hepatocyte Stability (Test D); format: in vitro ADME; conditions: human, cryopreserved pooled human hepatocytes (LiverPool 10-Donor), geometric mean if run multiple times
Method: Human Hepatocyte Stability (Test D)
The metabolic stability of compounds in human hepatocytes was assessed using the following protocol:
1. Prepare 10 mM stock solutions of compound and control compounds in appropriate solvent (DMSO). Place incubation medium (L-15 Medium) in a 37° C. water bath, and allow warming for at least 15 minutes prior to use.
2. Add 80 μL of acetonitrile to each well of the 96-well deep well plate (“Quenching plate”).
3. In a new 96-well plate, dilute the 10 mM test compounds and the control compounds to 100 μM by combining 198 μL of acetonitrile and 2 μL of 10 mM stock solution.
4. Remove a vial of cryopreserved (less than −150° C.) human hepatocytes (LiverPool™ 10-Donor Human hepatocytes obtained from Bioreclamation IVT (Product No. S01205)) from storage, ensuring that vials remain at cryogenic temperatures until thawing process ensues. As quickly as possible, thaw the cells by placing the vial in a 37° C. water bath and gently shaking the vials. Vials should remain in water bath until all ice crystals have dissolved and are no longer visible. After thawing is complete, spray vial with 70% ethanol, transfer the vial to a bio-safety cabinet.
5. Open the vial and pour the contents into the 50 mL conical tube containing thawing medium. Place the 50 mL conical tube into a centrifuge and spin at 100 g for 10 minutes (room temperature).
6. Using Cellometer® Vision, count cells and determine the viable cell density. Cells with poor viability (<80% viability) are not acceptable for use.
7. Transfer 247.5 μL of hepatocytes into each well of a 96-well cell incubation plate. Place the plate on Eppendorf Thermomixer Comfort plate shaker to allow the hepatocytes to warm for 10 minutes.
8. Add 2.5 μL of 100 μM test compound or control compounds into an incubation well containing cells to initiate the reaction.
9. Incubate the plate at 37° C. and 900 rpm on an Eppendorf Thermomixer Comfort plate shaker.
10. Centrifuge the quenching plates for 20 minutes at 4,000 rpm. Transfer 30 μL of supernatant of each compound into a 96-well analysis plate. 4 compounds are pooled together into one cassette. Then dilute the pooled sample by adding of 180 μl of pure water. All incubations are performed in singlicate.
All calculations were carried out using Microsoft Excel. Peak areas were determined from extracted ion chromatograms. In vitro intrinsic clearance (in vitro Clint, in μL/min/10^6 cells) of parent compound was determined by regression analysis of the Ln percent parent disappearance vs. time curve. The in vitro intrinsic clearance (in vitro Clint, in μL/min/10^6 cells) reported in Table 36, and was determined from the slope value using the following equation: in vitro Clint=kV/N
V=incubation volume (0.25 mL);
N=number of hepatocytes per well (0.25×10^6 cells)
Where the assay was run multiple times for the same compound, the geometric mean is reported.

COc1cc(F)c(O[C@H]2CC[C@@](C)(C(=O)O)CC2)cc1C(=O)N[C@@H]1[C@H]2CC[C@H](C2)[C@@H]1C(=O)NCC(C)C [Example 34, (1S,4s)-4-(2-Fluoro-5-(((1S,2R,3S,4R)-3-(isobutylcarbamoyl)bicyclo[2.2.1]heptan-2-yl)carbamoyl)-4-methoxyphenoxy)-1-methylcyclohexane-1-carboxylic acid]
microsomal CLint [1]: 5.7 µL/min/mg
Test B Human Plasma Protein Binding (% free) [2]: 4.8 % free
hepatocyte CLint [3]: 19 µL/min/1e6 cells
solubility (Solubility (Test F)): 880 µM (≈ 456 µg/mL)
hepatocyte CLint at 1 µM [4]: < 1 µL/min/1e6 cells

COc1cc(F)c(O[C@H]2CC[C@@](C)(C(=O)O)CC2)cc1C(=O)N[C@@H]1[C@H]2CC[C@H](C2)[C@@H]1C(=O)N[C@H](C)C(C)(C)C [Example 36, (1S,4s)-4-(5-(((1S,2R,3S,4R)-3-(((R)-3,3-Dimethylbutan-2-yl)carbamoyl)bicyclo[2.2.1]heptan-2-yl)carbamoyl)-2-fluoro-4-methoxyphenoxy)-1-methylcyclohexane-1-carboxylic acid]
microsomal CLint [1]: 33 µL/min/mg
Test B Human Plasma Protein Binding (% free) [2]: 6.9 % free
hepatocyte CLint [3]: 7.2 µL/min/1e6 cells
solubility (Solubility (Test F)): 22 µM (≈ 12 µg/mL)
hepatocyte CLint at 1 µM [4]: 5.8 µL/min/1e6 cells

COc1cc(F)c(O[C@H]2CC[C@@](C)(C(=O)O)CC2)cc1C(=O)N[C@@H]1[C@H]2CC[C@H](C2)[C@@H]1C(=O)NCC(C)(C)C(F)(F)F [Example 38, (1S,4s)-4-(2-Fluoro-4-methoxy-5-(((1S,2R,3S,4R)-3-((3,3,3-trifluoro-2,2-dimethylpropyl)carbamoyl)bicyclo[2.2.1]heptan-2-yl)carbamoyl)phenoxy)-1-methylcyclohexane-1-carboxylic acid]
microsomal CLint [1]: 13 µL/min/mg
Test B Human Plasma Protein Binding (% free) [2]: 5.6 % free
hepatocyte CLint [3]: 9 µL/min/1e6 cells
solubility (Solubility (Test F)): 38 µM (≈ 22.3 µg/mL)
hepatocyte CLint at 1 µM [4]: 4.2 µL/min/1e6 cells

CC1(CNC(=O)[C@H]2[C@@H]3CC[C@@H](C3)[C@H]2NC(=O)c2cc(O[C@H]3CC[C@@](C)(C(=O)O)CC3)c(F)cc2OC(F)F)CCC1 [Example 207, (1S,4s)-4-(4-(Difluoromethoxy)-2-fluoro-5-(((1S,2R,3S,4R)-3-(((1-methylcyclobutyl)methyl)carbamoyl)bicyclo[2.2.1]heptan-2-yl)carbamoyl)phenoxy)-1-methylcyclohexane-1-carboxylic acid]
microsomal CLint [1]: 34 µL/min/mg
Test B Human Plasma Protein Binding (% free) [2]: 3.5 % free
hepatocyte CLint [3]: 10 µL/min/1e6 cells
solubility (Solubility (Test F)): 560 µM (≈ 325 µg/mL)
hepatocyte CLint at 1 µM [4]: 26 µL/min/1e6 cells

COc1cc(F)c(O[C@H]2CC[C@@](CO)(C(=O)O)CC2)cc1C(=O)N[C@@H]1[C@H]2CC[C@H](C2)[C@@H]1C(=O)NCC1(C)CCC1 [Example 364]
microsomal CLint [1]: < 5.1 µL/min/mg
Test B Human Plasma Protein Binding (% free) [2]: 11 % free
hepatocyte CLint [3]: 19 µL/min/1e6 cells
solubility (Solubility (Test F)): > 1000 µM
hepatocyte CLint at 1 µM [4]: 6.2 µL/min/1e6 cells

COc1cc(C(F)F)c(O[C@H]2CC[C@@](C)(C(=O)O)CC2)cc1C(=O)N[C@@H]1[C@H]2CC[C@H](C2)[C@@H]1C(=O)NCC1(C)CCC1 [Example 373]
microsomal CLint [1]: 23 µL/min/mg
Test B Human Plasma Protein Binding (% free) [2]: 3.9 % free
hepatocyte CLint [3]: 16 µL/min/1e6 cells
solubility (Solubility (Test F)): 1000 µM (≈ 577 µg/mL)
hepatocyte CLint at 1 µM [4]: 5.1 µL/min/1e6 cells

COc1cc(C)c(O[C@H]2CC[C@@](C)(C(=O)O)CC2)cc1C(=O)N[C@@H]1[C@H]2CC[C@H](C2)[C@@H]1C(=O)NCC1(C)CCC1 [Example 375]
microsomal CLint [1]: 38 µL/min/mg
Test B Human Plasma Protein Binding (% free) [2]: 4.4 % free
hepatocyte CLint [3]: 32 µL/min/1e6 cells
solubility (Solubility (Test F)): 240 µM (≈ 130 µg/mL)
hepatocyte CLint at 1 µM [4]: 3.1 µL/min/1e6 cells

CCc1cc(OC)c(C(=O)N[C@@H]2[C@H]3CC[C@H](C3)[C@@H]2C(=O)NCC2(C)CCC2)cc1O[C@H]1CC[C@@](C)(C(=O)O)CC1 [Example 376]
microsomal CLint [1]: 44 µL/min/mg
Test B Human Plasma Protein Binding (% free) [2]: 2.5 % free
hepatocyte CLint [3]: 28 µL/min/1e6 cells
solubility (Solubility (Test F)): 300 µM (≈ 166 µg/mL)
hepatocyte CLint at 1 µM [4]: 3.9 µL/min/1e6 cells

COc1cc(C#N)c(O[C@H]2CC[C@@](C)(C(=O)O)CC2)cc1C(=O)N[C@@H]1[C@@H]2CC[C@@H](C2)[C@@H]1C(=O)NCC1(C)CCC1 [Example 388]
microsomal CLint [1]: 34 µL/min/mg
Test B Human Plasma Protein Binding (% free) [2]: 3.4 % free
hepatocyte CLint [3]: 55 µL/min/1e6 cells
solubility (Solubility (Test F)): 680 µM (≈ 375 µg/mL)
hepatocyte CLint at 1 µM [4]: 49 µL/min/1e6 cells

COc1cc(C#N)c(O[C@H]2CC[C@@](C)(C(=O)O)CC2)cc1C(=O)N[C@@H]1[C@@H]2CC[C@@H](C2)[C@@H]1C(=O)NCC(C)(C)C [Example 389]
microsomal CLint [1]: 5.8 µL/min/mg
Test B Human Plasma Protein Binding (% free) [2]: 6 % free
hepatocyte CLint [3]: 11 µL/min/1e6 cells
solubility (Solubility (Test F)): 910 µM (≈ 491 µg/mL)
hepatocyte CLint at 1 µM [4]: 8 µL/min/1e6 cells

COc1cc(Cl)c(O[C@H]2CC[C@@](C)(C(=O)O)CC2)cc1C(=O)N[C@@H]1[C@H]2CC[C@H](C2)[C@@H]1C(=O)NCC1(C)CCC1 [Example 392, (1S,4s)-4-(2-Chloro-4-methoxy-5-(((1S,2R,3S,4R)-3-(((1-methylcyclobutyl)methyl)carbamoyl)bicyclo[2.2.1]heptan-2-yl)carbamoyl)phenoxy)-1-methylcyclohexane-1-carboxylic acid]
microsomal CLint [1]: 36 µL/min/mg
Test B Human Plasma Protein Binding (% free) [2]: 2.7 % free
hepatocyte CLint [3]: 15 µL/min/1e6 cells
solubility (Solubility (Test F)): 470 µM (≈ 264 µg/mL)
hepatocyte CLint at 1 µM [4]: 4.7 µL/min/1e6 cells

CC1(CNC(=O)[C@H]2[C@@H]3CC[C@@H](C3)[C@H]2NC(=O)c2cc(O[C@H]3CC[C@@](C)(C(=O)O)CC3)c(F)cc2F)CCC1 [Example 393, (1S,4s)-4-(2,4-Difluoro-5-(((1S,2R,3S,4R)-3-(((1-methylcyclobutyl)methyl)carbamoyl)bicyclo[2.2.1]heptan-2-yl)carbamoyl)phenoxy)-1-methylcyclohexane-1-carboxylic acid]
microsomal CLint [1]: 37 µL/min/mg
Test B Human Plasma Protein Binding (% free) [2]: 1.4 % free
hepatocyte CLint [3]: 12 µL/min/1e6 cells
solubility (Solubility (Test F)): 53 µM (≈ 28.2 µg/mL)
hepatocyte CLint at 1 µM [4]: 6.7 µL/min/1e6 cells

COc1c(Cl)cc(O[C@H]2CC[C@@](C)(C(=O)O)CC2)cc1C(=O)N[C@@H]1[C@H]2CC[C@H](C2)[C@@H]1C(=O)NCC1(C)CCC1 [Example 403]
microsomal CLint [1]: 81 µL/min/mg
Test B Human Plasma Protein Binding (% free) [2]: 1.5 % free
hepatocyte CLint [3]: 25 µL/min/1e6 cells
solubility (Solubility (Test F)): 660 µM (≈ 370 µg/mL)
hepatocyte CLint at 1 µM [4]: 13 µL/min/1e6 cells

COc1cc(Cl)c(O[C@H]2CC[C@@](C)(C(=O)O)CC2)cc1C(=O)N[C@@H]1[C@@H]2CC[C@@H](C2)[C@@H]1C(=O)NCC1(C)CCC1 [Example 410]
microsomal CLint [1]: 20 µL/min/mg
Test B Human Plasma Protein Binding (% free) [2]: 0.48 % free
hepatocyte CLint [3]: 21 µL/min/1e6 cells
solubility (Solubility (Test F)): 280 µM (≈ 157 µg/mL)
hepatocyte CLint at 1 µM [4]: 49 µL/min/1e6 cells

COc1cc(F)c(O[C@H]2CC[C@@](CC#N)(C(=O)O)CC2)cc1C(=O)N[C@@H]1[C@H]2CC[C@H](C2)[C@@H]1C(=O)NCC1(C)CCC1 [Example 424, (1S,4s)-1-(Cyanomethyl)-4-(2-fluoro-4-methoxy-5-(((1S,2R,3S,4R)-3-(((1-methylcyclobutyl)methyl)carbamoyl)bicyclo[2.2.1]heptan-2-yl)carbamoyl)phenoxy)cyclohexane-1-carboxylic acid]
microsomal CLint [1]: 13 µL/min/mg
Test B Human Plasma Protein Binding (% free) [2]: 6.7 % free
hepatocyte CLint [3]: 21 µL/min/1e6 cells
solubility (Solubility (Test F)): 990 µM (≈ 564 µg/mL)
hepatocyte CLint at 1 µM [4]: 10 µL/min/1e6 cells

COc1cc(C#N)c(O[C@H]2CC[C@@](C)(C(=O)O)CC2)cc1C(=O)N[C@@H]1[C@H]2CC[C@H](C2)[C@@H]1C(=O)NCC1(C)CCC1 [Example 592, (1S,4s)-4-(2-cyano-4-methoxy-5-(((1S,2R,3S,4R)-3-(((1-methylcyclobutyl)methyl)carbamoyl)bicyclo[2.2.1]heptan-2-yl)carbamoyl)phenoxy)-1-methylcyclohexane-1-carboxylic acid]
microsomal CLint [1]: 19 µL/min/mg
Test B Human Plasma Protein Binding (% free) [2]: 6.3 % free
hepatocyte CLint [3]: 18 µL/min/1e6 cells
solubility (Solubility (Test F)): > 890 µM
hepatocyte CLint at 1 µM [4]: 5.6 µL/min/1e6 cells
